Measurements reported in PubChem BioAssay (NCI).
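Grown in 96-well plates, cells were treated for 48 hours with each compound at five concentrations. Insufficient inhibition: endpoint recorded as highest concentration tested. GI50: concentration for 50% inhibition of growth. TGI: concentration producing complete growth inhibition.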

Columns and labels:
Assay in all cases: NCI-60 cell line screen, 48 h
CAKI-1 renal = tested on: CAKI-1 renal
ACHN renal = tested on: ACHN renal
NCI-H460 lung = tested on: NCI-H460 lung
SK-OV-3 ovarian = tested on: SK-OV-3 ovarian
HCC-2998 colon = tested on: HCC-2998 colon
UACC-257 melanoma = tested on: UACC-257 melanoma
PC-3 prostate = tested on: PC-3 prostate
NCI-H226 lung = tested on: NCI-H226 lung
MDA-MB-231 breast = tested on: MDA-MB-231 breast
HOP-92 NSCLC = tested on: HOP-92 NSCLC
786-0 renal = tested on: 786-0 renal
IGROV1 ovarian = tested on: IGROV1 ovarian
OVCAR-3 ovarian = tested on: OVCAR-3 ovarian
MCF7 breast = tested on: MCF7 breast
COLO 205 colon = tested on: COLO 205 colon
RPMI-8226 leukemia = tested on: RPMI-8226 leukemia
RXF 393 renal = tested on: RXF 393 renal
M14 melanoma = tested on: M14 melanoma
SNB-19 CNS = tested on: SNB-19 CNS
A498 renal = tested on: A498 renal
SF-268 CNS = tested on: SF-268 CNS
TK-10 renal = tested on: TK-10 renal
BT-549 breast = tested on: BT-549 breast
OVCAR-5 ovarian = tested on: OVCAR-5 ovarian
HS 578T breast = tested on: HS 578T breast
SW-620 colon = tested on: SW-620 colon
UACC-62 melanoma = tested on: UACC-62 melanoma
NCI-H23 lung = tested on: NCI-H23 lung
LOX IMVI melanoma = tested on: LOX IMVI melanoma
HCT-116 colon = tested on: HCT-116 colon
KM12 colon = tested on: KM12 colon
MDA-MB-435 = tested on: MDA-MB-435
UO-31 renal = tested on: UO-31 renal
SK-MEL-2 melanoma = tested on: SK-MEL-2 melanoma
HOP-62 NSCLC = tested on: HOP-62 NSCLC
EKVX NSCLC = tested on: EKVX NSCLC
OVCAR-4 ovarian = tested on: OVCAR-4 ovarian
A549 NSCLC = tested on: A549 NSCLC
SF-295 CNS = tested on: SF-295 CNS
OVCAR-8 ovarian = tested on: OVCAR-8 ovarian
T-47D breast = tested on: T-47D breast
K-562 leukemia = tested on: K-562 leukemia
HCT-15 colon = tested on: HCT-15 colon
MOLT-4 leukemia = tested on: MOLT-4 leukemia
SK-MEL-5 melanoma = tested on: SK-MEL-5 melanoma
U251 CNS = tested on: U251 CNS
HT29 colon = tested on: HT29 colon
SNB-75 CNS = tested on: SNB-75 CNS
NCI/ADR-RES ovarian = tested on: NCI/ADR-RES ovarian
SK-MEL-28 melanoma = tested on: SK-MEL-28 melanoma
NCI-H522 lung = tested on: NCI-H522 lung
DU-145 prostate = tested on: DU-145 prostate
SN12C renal = tested on: SN12C renal

Question: CC(=O)OCCCC#CC#Cc1cccc(=O)o1 was tested. Which GI50 (CAKI-1 renal) did it give?
Answer: 13.6 µM

Question: And the TGI (CAKI-1 renal)?
Answer: 28.3 µM

Question: What about the GI50 (ACHN renal) of the same molecule?
Answer: 19.2 µM

Question: And the TGI (ACHN renal)?
Answer: 35 µM

Question: And the GI50 (NCI-H460 lung)?
Answer: 20 µM

Question: And the TGI (NCI-H460 lung)?
Answer: 42.2 µM

Question: What about the GI50 (SK-OV-3 ovarian) of the same molecule?
Answer: 33.8 µM

Question: And the TGI (SK-OV-3 ovarian)?
Answer: > 100 µM

Question: And the GI50 (HCC-2998 colon)?
Answer: 16.6 µM

Question: What about the TGI (HCC-2998 colon) of the same molecule?
Answer: 33.2 µM

Question: And the GI50 (UACC-257 melanoma)?
Answer: 23.8 µM

Question: What about the TGI (UACC-257 melanoma) of the same molecule?
Answer: 55.6 µM

Question: What about the GI50 (PC-3 prostate) of the same molecule?
Answer: 18.4 µM

Question: And the TGI (PC-3 prostate)?
Answer: 44.4 µM

Question: What about the GI50 (NCI-H226 lung) of the same molecule?
Answer: 20.8 µM

Question: What about the TGI (NCI-H226 lung) of the same molecule?
Answer: 52.8 µM

Question: What about the GI50 (MDA-MB-231 breast) of the same molecule?
Answer: 13.7 µM

Question: What about the TGI (MDA-MB-231 breast) of the same molecule?
Answer: 29 µM

Question: And the GI50 (HOP-92 NSCLC)?
Answer: 19.8 µM

Question: And the TGI (HOP-92 NSCLC)?
Answer: 37.8 µM

Question: And the GI50 (786-0 renal)?
Answer: 19 µM

Question: What about the TGI (786-0 renal) of the same molecule?
Answer: 35.1 µM

Question: And the GI50 (IGROV1 ovarian)?
Answer: 18.7 µM

Question: And the TGI (IGROV1 ovarian)?
Answer: > 100 µM

Question: And the GI50 (OVCAR-3 ovarian)?
Answer: 2.89 µM

Question: And the TGI (OVCAR-3 ovarian)?
Answer: 14.2 µM

Question: What about the GI50 (MCF7 breast) of the same molecule?
Answer: 20.3 µM

Question: And the TGI (MCF7 breast)?
Answer: 43.5 µM

Question: And the GI50 (COLO 205 colon)?
Answer: 19.4 µM

Question: What about the TGI (COLO 205 colon) of the same molecule?
Answer: 41.8 µM

Question: What about the GI50 (RPMI-8226 leukemia) of the same molecule?
Answer: 4.19 µM

Question: And the TGI (RPMI-8226 leukemia)?
Answer: 20.3 µM

Question: And the GI50 (RXF 393 renal)?
Answer: 24.3 µM

Question: What about the TGI (RXF 393 renal) of the same molecule?
Answer: 43.8 µM

Question: And the GI50 (M14 melanoma)?
Answer: 17.8 µM

Question: And the TGI (M14 melanoma)?
Answer: 36.5 µM

Question: And the GI50 (SNB-19 CNS)?
Answer: 25.6 µM

Question: And the TGI (SNB-19 CNS)?
Answer: 67.7 µM

Question: What about the GI50 (A498 renal) of the same molecule?
Answer: 23.9 µM

Question: And the TGI (A498 renal)?
Answer: 39.4 µM

Question: What about the GI50 (SF-268 CNS) of the same molecule?
Answer: 19.4 µM

Question: What about the TGI (SF-268 CNS) of the same molecule?
Answer: 41.1 µM

Question: What about the GI50 (TK-10 renal) of the same molecule?
Answer: 13 µM

Question: What about the TGI (TK-10 renal) of the same molecule?
Answer: 26.4 µM

Question: And the GI50 (BT-549 breast)?
Answer: 10.6 µM

Question: And the TGI (BT-549 breast)?
Answer: 26.6 µM

Question: What about the GI50 (OVCAR-5 ovarian) of the same molecule?
Answer: 22.3 µM

Question: And the TGI (OVCAR-5 ovarian)?
Answer: 42.4 µM

Question: And the GI50 (HS 578T breast)?
Answer: 25.8 µM

Question: And the TGI (HS 578T breast)?
Answer: 56.7 µM

Question: What about the GI50 (SW-620 colon) of the same molecule?
Answer: 13.6 µM

Question: And the TGI (SW-620 colon)?
Answer: 37.5 µM

Question: What about the GI50 (UACC-62 melanoma) of the same molecule?
Answer: 14.6 µM

Question: And the TGI (UACC-62 melanoma)?
Answer: 28.9 µM

Question: What about the GI50 (NCI-H23 lung) of the same molecule?
Answer: 15.8 µM

Question: And the TGI (NCI-H23 lung)?
Answer: 33 µM

Question: And the GI50 (LOX IMVI melanoma)?
Answer: 15.8 µM

Question: And the TGI (LOX IMVI melanoma)?
Answer: 54 µM

Question: And the GI50 (HCT-116 colon)?
Answer: 14.6 µM

Question: And the TGI (HCT-116 colon)?
Answer: 29.1 µM

Question: And the GI50 (KM12 colon)?
Answer: 16 µM

Question: What about the TGI (KM12 colon) of the same molecule?
Answer: 30.9 µM

Question: And the GI50 (MDA-MB-435)?
Answer: 16 µM

Question: What about the TGI (MDA-MB-435) of the same molecule?
Answer: 31.4 µM

Question: What about the GI50 (UO-31 renal) of the same molecule?
Answer: 3.52 µM

Question: And the TGI (UO-31 renal)?
Answer: > 100 µM

Question: What about the GI50 (SK-MEL-2 melanoma) of the same molecule?
Answer: 40 µM

Question: What about the TGI (SK-MEL-2 melanoma) of the same molecule?
Answer: > 100 µM

Question: What about the GI50 (HOP-62 NSCLC) of the same molecule?
Answer: 15.5 µM

Question: What about the TGI (HOP-62 NSCLC) of the same molecule?
Answer: 30.4 µM

Question: What about the GI50 (EKVX NSCLC) of the same molecule?
Answer: 16.9 µM

Question: And the TGI (EKVX NSCLC)?
Answer: 36.4 µM

Question: And the GI50 (OVCAR-4 ovarian)?
Answer: 24.9 µM

Question: What about the TGI (OVCAR-4 ovarian) of the same molecule?
Answer: 56.1 µM

Question: And the GI50 (A549 NSCLC)?
Answer: 20.4 µM

Question: And the TGI (A549 NSCLC)?
Answer: 42.9 µM

Question: What about the GI50 (SF-295 CNS) of the same molecule?
Answer: 17.8 µM

Question: And the TGI (SF-295 CNS)?
Answer: 32.7 µM

Question: What about the GI50 (OVCAR-8 ovarian) of the same molecule?
Answer: 29.4 µM

Question: What about the TGI (OVCAR-8 ovarian) of the same molecule?
Answer: 86.4 µM

Question: What about the GI50 (T-47D breast) of the same molecule?
Answer: 20 µM

Question: And the TGI (T-47D breast)?
Answer: 51.1 µM

Question: What about the GI50 (K-562 leukemia) of the same molecule?
Answer: 5.38 µM

Question: And the TGI (K-562 leukemia)?
Answer: 28.9 µM

Question: What about the GI50 (HCT-15 colon) of the same molecule?
Answer: 11.7 µM

Question: And the TGI (HCT-15 colon)?
Answer: 25.7 µM

Question: And the GI50 (MOLT-4 leukemia)?
Answer: 6.59 µM

Question: And the TGI (MOLT-4 leukemia)?
Answer: > 100 µM

Question: And the GI50 (SK-MEL-5 melanoma)?
Answer: 16.1 µM

Question: What about the TGI (SK-MEL-5 melanoma) of the same molecule?
Answer: 32.6 µM

Question: What about the GI50 (U251 CNS) of the same molecule?
Answer: 23.9 µM

Question: And the TGI (U251 CNS)?
Answer: 54.3 µM

Question: And the GI50 (HT29 colon)?
Answer: 24.9 µM

Question: And the TGI (HT29 colon)?
Answer: 71.5 µM

Question: What about the GI50 (SNB-75 CNS) of the same molecule?
Answer: 29.1 µM

Question: What about the TGI (SNB-75 CNS) of the same molecule?
Answer: 67.2 µM

Question: What about the GI50 (NCI/ADR-RES ovarian) of the same molecule?
Answer: 39.6 µM

Question: And the TGI (NCI/ADR-RES ovarian)?
Answer: > 100 µM

Question: And the GI50 (SK-MEL-28 melanoma)?
Answer: 23.9 µM

Question: What about the TGI (SK-MEL-28 melanoma) of the same molecule?
Answer: 55.8 µM

Question: What about the GI50 (NCI-H522 lung) of the same molecule?
Answer: 32.1 µM

Question: And the TGI (NCI-H522 lung)?
Answer: > 100 µM

Question: What about the GI50 (DU-145 prostate) of the same molecule?
Answer: 11.7 µM

Question: And the TGI (DU-145 prostate)?
Answer: 26.8 µM

Question: What about the GI50 (SN12C renal) of the same molecule?
Answer: 19 µM

Question: And the TGI (SN12C renal)?
Answer: 39.7 µM
